Results published in patent US11890299B2, “Ablation agent and methods of use” (HOLOGIC, INC., priority 2019, dated 2024).

Test system: bovine liver (simulated tissue)
Assay: Bolus / chemical ablation test in sample bovine liver tissue
Text: For example, a solid active agent (HAuCl4) may be added to water at room temperature, and mixed for approximately ten (10) minutes, then filtered and ready to use. The active agent (HAuCl4) solution may be stored for up to a year without stability issues. The hydrophilic nature of the solution facilitates the delivery and spread of the active agent (HAuCl4) throughout the entire target tissue/cavity, while avoiding formation of lumps in the solution or patches of tissue without the solution when delivered.
FIGS. 2A-C and FIGS. 3-5 illustrate exemplary ablative effects of the active agent (HAuCl4) 300 when applied to a sample tissue. FIG. 2A illustrates a liquid DI water solution of active agent (HAuCl4) 300, a syringe 400 and a sample bovine liver tissue 500. […] FIG. 2C depicts the ablated tissue 500.
Various tests were performed in sample tissue 500. For example, in some tests the active agent (HAuCl4) 300 (1 ml) was delivered into the tissue 500 having a constant time of exposure (e.g., 2 minutes at room temperature) but the bolus size (ablated volume) was measured under different active agent (HAuCl4) concentrations (FIG. 3). Data contained in FIG. 3 was measured three times and obtained the average value for the graph, as shown. As known in the art, bolus tests are common to understand diffusion and effectiveness of ablative technologies.
In another test, the active agent (HAuCl4) concentration was maintained constant at 0.5% in an injected 1 ml into the sample tissue but the bolus size was measured at different times (FIG. 4). Data reference in FIG. 4 was measured five times and obtained the average value for the graph, as shown. […] Additionally, the bolus size is time dependent but after 3 minutes, 1 ml of 0.5% HAuCl4 DI-water solution stopped the reaction because the solution is not strong enough to penetrate the tissue further. Therefore, the active agent (HAuCl4) chemical ablation is quantity and time dependent.
FIG. 5 illustrates sample tissue ablation profiles measured and characterized for a range of active agent (HAuCl4) concentration (0.10%, 0.25% and 1% of HAuCl4 within 2 minutes, and a variety of bolus sizes). Optimization was performed to select 0.5% of HAuCl4 in order to achieve desirable ablation profile (rage of 4-9 mm ablation depth of tissue). Additional optimization could be performed to achieve shallower profiles (if desired).

[Au+3].[Cl-].[Cl-].[Cl-].[Cl-].[H+] [HAuCl4, chloroauric acid]
penetration depths in the tissue from the surface of the tissue (0.5% HAuCl4 diluted in water, up to three (3) minutes of exposure): 4-9 mm | ablation depth of tissue (ablation profile) (0.5% of HAuCl4 selected by optimization): 4-9 mm | bolus size (ablated volume) versus concentration (1 ml injected, 2 minutes at room temperature, different concentrations (FIG. 3)): increases with the active agent (HAuCl4) concentration | time after which the reaction stopped (bolus size versus time) (1 ml of 0.5% HAuCl4 DI-water solution (FIG. 4)): 3 min
